Experimental data reported in patent publication US8222247B2, “Modulators of glucocorticoid receptor, AP-1, and/or NF-kappabeta activity and use thereof” (Bristol-Myers Squibb Company, priority 2006, dated 2012).

Target: T1, human glucocorticoid receptor (Homo sapiens, UniProt P04150)
T1 construct: purified human recombinant full-length glucocorticoid receptor (2 nM); purchased Invitrogen Part #2893
T1 sequence (P04150 1-777): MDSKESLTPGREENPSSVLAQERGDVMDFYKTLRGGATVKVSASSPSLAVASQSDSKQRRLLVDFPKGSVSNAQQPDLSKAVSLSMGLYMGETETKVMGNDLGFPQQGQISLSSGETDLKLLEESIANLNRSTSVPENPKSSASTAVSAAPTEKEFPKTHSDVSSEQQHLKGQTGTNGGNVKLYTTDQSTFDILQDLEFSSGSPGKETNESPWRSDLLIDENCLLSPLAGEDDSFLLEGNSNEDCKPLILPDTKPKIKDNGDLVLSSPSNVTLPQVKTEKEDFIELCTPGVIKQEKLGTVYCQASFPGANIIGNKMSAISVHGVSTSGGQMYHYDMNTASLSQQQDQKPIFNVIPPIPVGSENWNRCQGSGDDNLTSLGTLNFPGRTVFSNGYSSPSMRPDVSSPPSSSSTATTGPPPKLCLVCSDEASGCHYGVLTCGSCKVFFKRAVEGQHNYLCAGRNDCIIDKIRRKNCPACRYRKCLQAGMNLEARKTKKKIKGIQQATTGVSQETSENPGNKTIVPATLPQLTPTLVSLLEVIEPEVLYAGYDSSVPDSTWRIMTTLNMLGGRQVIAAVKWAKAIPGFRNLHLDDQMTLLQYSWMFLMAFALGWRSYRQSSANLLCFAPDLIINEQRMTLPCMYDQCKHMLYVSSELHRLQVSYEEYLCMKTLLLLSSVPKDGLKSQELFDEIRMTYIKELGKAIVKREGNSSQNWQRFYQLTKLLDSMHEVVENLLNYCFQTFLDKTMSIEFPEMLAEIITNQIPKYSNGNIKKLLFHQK
Assay: Glucocorticoid Receptor Binding Assay (I), fluorescence polarization competitor kit
Conditions: purified human recombinant full-length GR, Fluormone GS Red
Protocol: Glucocorticoid Receptor Binding Assay (I)^a
In order to assess the affinity of test compounds for the human glucocorticoid receptor, a commercially available kit was used (Glucocorticoid Receptor Competitor Assay Kit, Invitrogen Part #2893). Briefly, purified human recombinant full-length glucocorticoid receptor (2 nM) was mixed with fluorescently labeled glucocorticoid (1 nM Fluormone GS Red) in the presence or absence of test compound. After two hour incubation at room temperature in the dark, the fluorescence polarization (FP) of the samples was measured. The FP of a mixture of receptor, fluorescent probe (i.e. Fluormone GS Red) and 5 μM dexamethasone represented background fluorescence or 100% inhibition, whereas, the FP of the mixture without dexamethasone (but in the presence of vehicle) was taken to be 100% binding. The percentage inhibition of test compounds were then compared to the sample with 5 μM dexamethasone and expressed as % relative binding activity with dexamethasone being 100% and no inhibition is 0%. Test compounds were analyzed in the concentration range from 8.5E-05 μM to 5 μM.

Row | SMILES | Ki [nM]
1 | CCCN(CCC)C(=O)c1ccc(-c2ccc([C@H](c3cccc(F)c3)C(C)(C)C(=O)Nc3nncs3)s2)cc1 [Example 72, 4-(5-((1R)-1-(3-fluorophenyl)-2,2-dimethyl-3-oxo-3-(1,3,4-thiadiazol-2-ylamino)propyl)-2-thienyl)-N,N-dipropylbenzamide] | 29.8
2 | CC(C)(C(=O)Nc1nncs1)C(c1ccccc1)c1ccc(Br)s1 (stereo not drawn) [Example 3, -(5-bromo-2-thienyl)-2,2-dimethyl-3-phenyl-N-1,3,4-thiadiazol-2-ylpropanamide] | 3.66
3 | C[C@H](C(=O)Nc1nncs1)[C@@H](c1cccc(F)c1)c1ccc(Br)s1 [Example 94, (2S,3S)-3-(5-bromo-2-thienyl)-3-(3-fluorophenyl)-2-methyl-N-1,3,4-thiadiazol-2-ylpropanamide] | 4.11
4 | CC(C)(C(=O)Nc1nncs1)C(c1ccccc1)c1ccc(Br)s1 (single isomer, unassigned) [Example 84, 3-(5-bromo-2-thienyl)-2,2-dimethyl-3-phenyl-N-1,3,4-thiadiazol-2-ylpropanamide] | 5.06
5 | CC(C(=O)Nc1nncs1)C(c1ccccc1)c1ccc(-c2ccc(C(=O)N(C)C)cc2)s1 (single isomer, unassigned) [Example 138, N,N-dimethyl-4-(5-(2-methyl-3-oxo-1-phenyl-3-(1,3,4-thiadiazol-2-ylamino)propyl)-2-thienyl)benzamide] | 360
6 | CC(C)(C(=O)Nc1nncs1)[C@@H](c1cccc(F)c1)c1ccc(-c2ccc(C(=O)O)c(F)c2)s1 [Example 78, 2-fluoro-4-(5-((1R)-1-(3-fluorophenyl)-2,2-dimethyl-3-oxo-3-(1,3,4-thiadiazol-2-ylamino)propyl)-2-thienyl)benzoic acid] | 24.5
7 | CCCN(CCC)C(=O)c1ccc(-c2ccc(C(c3ccccc3)C(C)(C)C(=O)Nc3nncs3)s2)cc1 (stereo not drawn) [Example 51, 4-(5-(2,2-dimethyl-3-oxo-1-phenyl-3-(1,3,4-thiadiazol-2-ylamino)propyl)-2-thienyl)-N,N-dipropylbenzamide] | 79.7
8 | CC(C)(C(=O)Nc1nccs1)C(c1ccccc1)c1ccc(Br)s1 (stereo not drawn) [Example 4, 3-(5-bromo-2-thienyl)-2,2-dimethyl-3-phenyl-N-1,3-thiazol-2-ylpropanamide] | 6.97
9 | C[C@@H](C(=O)Nc1nncs1)[C@@H](c1cccc(F)c1)c1ccc(-c2ccc(C(=O)N(C)C)cc2)s1 [Example 131, 4-(5-((1S,2R)-1-(3-fluorophenyl)-2-methyl-3-oxo-3-(1,3,4-thiadiazol-2-ylamino)propyl)-2-thienyl)-N,N-dimethylbenzamide] | 236
10 | C[C@@H](C(=O)Nc1nncs1)[C@H](c1ccccc1)c1ccc(-c2ccc(C(=O)N3CCOCC3)cc2)s1 (stereo in doubt) [Example 152, (2R,3R)-2-methyl-3-(5-(4-(4-morpholinylcarbonyl)phenyl)-2-thienyl)-3-phenyl-N-1,3,4-thiadiazol-2-ylpropanamide] | 4.85
11 | CN(C)C(=O)c1ccc(-c2ccc([C@@H](c3cccc(F)c3)C(C)(C)C(=O)Nc3nncs3)s2)cc1 [Example 58, 4-(5-((1S)-1-(3-fluorophenyl)-2,2-dimethyl-3-oxo-3-(1,3,4-thiadiazol-2-ylamino)propyl)-2-thienyl)-N,N-dimethylbenzamide] | 29.2
12 | CN(C)C(=O)c1ccc(-c2ccc(C(c3cccc(F)c3)C(C)(C)C(=O)Nc3nncs3)s2)cc1 (stereo not drawn) [Example 36, 4-(5-(1-(3-fluorophenyl)-2,2-dimethyl-3-oxo-3-(1,3,4-thiadiazol-2-ylamino)propyl)-2-thienyl)-N,N-dimethylbenzamide] | 1.46
13 | CC(C(=O)Nc1nncs1)C(c1ccccc1)c1ccc(-c2ccc(C(=O)N(C)C)cc2)s1 (single isomer, unassigned) [Example 139, N,N-dimethyl-4-(5-(2-methyl-3-oxo-1-phenyl-3-(1,3,4-thiadiazol-2-ylamino)propyl)-2-thienyl)benzamide] | 259
14 | CC(C)(C(=O)Nc1nncs1)[C@@H](c1cccc(F)c1)c1ccc(-c2ccc(C(=O)N3CCC3)c(F)c2)s1 [Example 82, (3R)-3-(5-(4-(1-azetidinylcarbonyl)-3-fluorophenyl)-2-thienyl)-3-(3-fluorophenyl)-2,2-dimethyl-N-1,3,4-thiadiazol-2-ylpropanamide] | 2.66
15 | C[C@H](C(=O)Nc1nncs1)[C@H](c1cccc(F)c1)c1ccc(-c2ccc(C(=O)N3CCOCC3)c(Cl)c2)s1 [Example 127, (2S,3R)-3-(5-(3-chloro-4-(4-morpholinylcarbonyl)phenyl)-2-thienyl)-3-(3-fluorophenyl)-2-methyl-N-1,3,4-thiadiazol-2-ylpropanamide] | 148
16 | C[C@H](C(=O)Nc1nncs1)[C@H](c1cccc(F)c1)c1ccc(Br)s1 [Example 95, (2S,3R)-3-(5-bromo-2-thienyl)-3-(3-fluorophenyl)-2-methyl-N-1,3,4-thiadiazol-2-ylpropanamide] | 0.76
17 | C[C@H](C(=O)Nc1nncs1)[C@@H](c1cccc(F)c1)c1ccc(-c2ccc(C(=O)N(C)C)cc2)s1 [Example 125, 4-(5-((1S,2S)-1-(3-fluorophenyl)-2-methyl-3-oxo-3-(1,3,4-thiadiazol-2-ylamino)propyl)-2-thienyl)-N,N-dimethylbenzamide] | 5.71
18 | C[C@@H](C(=O)Nc1nncs1)[C@H](c1ccccc1)c1ccc(Br)s1 [Example 136, (2R,3R)-3-(5-bromo-2-thienyl)-2-methyl-3-phenyl-N-1,3,4-thiadiazol-2-ylpropanamide] | 1.98
19 | CC(C)(C(=O)Nc1nncs1)[C@@H](c1cccc(F)c1)c1ccc(-c2ccc(C(N)=O)cc2)s1 [Example 74, 4-(5-((1R)-1-(3-fluorophenyl)-2,2-dimethyl-3-oxo-3-(1,3,4-thiadiazol-2-ylamino)propyl)-2-thienyl)benzamide] | 2.24
20 | CCN(CC)C(=O)c1ccc(-c2ccc(C(c3ccccc3)C(C)(C)C(=O)Nc3nncs3)s2)cc1Cl (stereo not drawn) [Example 48, 2-chloro-4-(5-(2,2-dimethyl-3-oxo-1-phenyl-3-(1,3,4-thiadiazol-2-ylamino)propyl)-2-thienyl)-N,N-diethylbenzamide] | 17.4
21 | CCN(C)C(=O)c1ccc(-c2ccc([C@H](c3cccc(F)c3)[C@H](C)C(=O)Nc3nncs3)s2)cc1 [Example 106, N-ethyl-4-(5-((1S,2S)-1-(3-fluorophenyl)-2-methyl-3-oxo-3-(1,3,4-thiadiazol-2-ylamino)propyl)-2-thienyl)-N-methylbenzamide] | 2.44
22 | CC(C)(C(=O)Nc1nncs1)[C@H](c1cccc(F)c1)c1ccc(Br)s1 [Example 56, (3S)-3-(5-bromo-2-thienyl)-3-(3-fluorophenyl)-2,2-dimethyl-N-1,3,4-thiadiazol-2-ylpropanamide] | 1.21
23 | CNC(=O)c1ccc(-c2ccc([C@H](c3cccc(F)c3)C(C)(C)C(=O)Nc3nncs3)s2)cc1 [Example 75, 4-(5-((1R)-1-(3-fluorophenyl)-2,2-dimethyl-3-oxo-3-(1,3,4-thiadiazol-2-ylamino)propyl)-2-thienyl)-N-methylbenzamide] | 1.52
24 | CN(C)C(=O)c1ccc(-c2ccc([C@@H](c3cccc(F)c3)C(C)(C)C(=O)Nc3nncs3)s2)cc1Cl [Example 60, 2-chloro-4-(5-((1S)-1-(3-fluorophenyl)-2,2-dimethyl-3-oxo-3-(1,3,4-thiadiazol-2-ylamino)propyl)-2-thienyl)-N,N-dimethylbenzamide] | 161
